Here are results for 24 molecules from patent US6506766B1 (Abbott Laboratories, priority 1998, dated 2003).

For orientation: Ki means the equilibrium dissociation constant of an inhibitor or competing ligand from its target.

Experiment [1] concerns the target T1, human progesterone receptor-A [PRA] isoform (Homo sapiens, UniProt P06401).
T1 construct: host or cells: insect SF21 cells (baculovirus)
T1 sequence (P06401 1-769 isoform P06401-2): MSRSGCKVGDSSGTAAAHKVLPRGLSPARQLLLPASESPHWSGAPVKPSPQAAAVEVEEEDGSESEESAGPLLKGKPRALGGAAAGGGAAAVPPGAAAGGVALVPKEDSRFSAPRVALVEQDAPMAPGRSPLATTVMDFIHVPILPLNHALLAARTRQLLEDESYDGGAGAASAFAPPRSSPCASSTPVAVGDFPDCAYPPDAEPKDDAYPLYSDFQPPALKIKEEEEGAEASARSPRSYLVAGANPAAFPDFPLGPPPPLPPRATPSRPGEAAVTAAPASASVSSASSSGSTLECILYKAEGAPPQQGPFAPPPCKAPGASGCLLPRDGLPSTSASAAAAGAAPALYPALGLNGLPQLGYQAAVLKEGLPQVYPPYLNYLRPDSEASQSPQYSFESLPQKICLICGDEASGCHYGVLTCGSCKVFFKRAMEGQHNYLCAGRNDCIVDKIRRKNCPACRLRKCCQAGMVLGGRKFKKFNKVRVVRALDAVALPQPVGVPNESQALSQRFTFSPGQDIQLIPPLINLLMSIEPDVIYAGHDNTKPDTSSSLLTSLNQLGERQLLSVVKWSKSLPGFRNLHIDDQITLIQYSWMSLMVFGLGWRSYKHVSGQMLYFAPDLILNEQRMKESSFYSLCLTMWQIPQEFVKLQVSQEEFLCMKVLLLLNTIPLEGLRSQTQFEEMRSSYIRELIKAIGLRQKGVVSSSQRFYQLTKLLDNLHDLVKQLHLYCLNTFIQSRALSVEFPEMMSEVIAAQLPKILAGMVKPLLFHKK
The experiment is described as follows: Radioligand binding with human progesterone receptor cytosol ([3H]-progesterone competition). The conditions noted are these: read-out: Ki (nM) PR.

Experiment [2] concerns the target T2, human glucocorticoid receptor-α [GRX] isoform (Homo sapiens, UniProt P04150).
T2 construct: host or cells: insect SF21 cells (baculovirus)
T2 sequence (P04150 1-777): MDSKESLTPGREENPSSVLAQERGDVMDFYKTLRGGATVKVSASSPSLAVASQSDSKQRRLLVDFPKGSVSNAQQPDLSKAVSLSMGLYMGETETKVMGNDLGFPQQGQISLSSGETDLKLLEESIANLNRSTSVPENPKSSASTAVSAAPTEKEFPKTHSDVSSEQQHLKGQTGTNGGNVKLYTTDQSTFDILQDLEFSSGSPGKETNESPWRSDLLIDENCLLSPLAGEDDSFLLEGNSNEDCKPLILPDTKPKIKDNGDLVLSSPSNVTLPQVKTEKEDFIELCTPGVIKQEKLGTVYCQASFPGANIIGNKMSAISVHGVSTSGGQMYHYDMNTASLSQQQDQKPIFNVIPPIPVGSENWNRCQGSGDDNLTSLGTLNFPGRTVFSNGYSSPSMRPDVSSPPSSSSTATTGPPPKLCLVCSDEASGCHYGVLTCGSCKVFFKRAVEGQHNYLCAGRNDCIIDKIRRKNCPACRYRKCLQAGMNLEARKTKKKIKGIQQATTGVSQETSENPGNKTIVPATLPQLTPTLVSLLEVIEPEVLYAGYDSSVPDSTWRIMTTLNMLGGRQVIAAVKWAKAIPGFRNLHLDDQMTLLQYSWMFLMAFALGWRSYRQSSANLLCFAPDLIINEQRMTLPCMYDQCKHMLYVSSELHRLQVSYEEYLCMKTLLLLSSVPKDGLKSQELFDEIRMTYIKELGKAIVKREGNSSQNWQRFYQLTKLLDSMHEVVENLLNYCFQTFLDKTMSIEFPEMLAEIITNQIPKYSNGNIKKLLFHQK
Nature of the experiment: Radioligand binding with human glucocorticoid receptor cytosol ([3H]-dexamethasone competition). The conditions noted are these: read-out: Ki (nM) GR.

Setting [3] is: PRA cytosol expressed in insect SF21 cells, [3H]Prog ~0.8 nM, 4° C. overnight, Ki by Cheng-Prusoff, KL ~4.5 nM.
Where [4] appears, read: GRX cytosol expressed in insect SF21 cells, [3H]-Dex ~0.9 nM, 4° C. overnight, Ki by Cheng-Prusoff, KL ~[…].

Read-outs that look alike come from different tables or passages of the source.

For `C/C=C/CC1Oc2cccc(OC)c2-c2ccc3c(c21)C(C)=CC(C)(C)N3` (stereo not drawn) [Example 198, (E) 2,5-Dihydro-10-methoxy-5-(2-butenyl)-2,2,4-trimethyl-1H-[1]benzopyrano[3,4-f]quinoline], the results for the Ki in experiment [1] (setting [3]) and in experiment [2] (setting [4]) were 2130 nM and 0.65 nM, respectively.
For `COc1cccc2c1-c1ccc3c(c1C(CCOC(=O)NCc1ccccc1)O2)C(C)=CC(C)(C)N3` (stereo not drawn) [Example 200, 2,5-Dihydro-10-methoxy-5-(2-(N-benzylcarbonyloxy)ethyl)-2,2,4-trimethyl-1H-[1]benzopyrano[3,4-f]quinoline], the inhibitory constant (Ki) in experiment [1] (setting [3]) is no less than 10000 nM; in experiment [2] (setting [4]), 45 nM.
On the same counts, the results for `COc1cccc2c1-c1ccc3c(c1C(CCOC(=O)N1CCOCC1)O2)C(C)=CC(C)(C)N3` (stereo not drawn) [Example 201, 2,5-Dihydro-10-methoxy-5-(2-(N-morpholinocarbonyloxy)ethyl)-2,2,4-trimethyl-1H-[1]benzopyrano[3,4-f]quinoline] are no less than 10000 nM and 114 nM.
`COCCNC(=O)OCCC1Oc2cccc(OC)c2-c2ccc3c(c21)C(C)=CC(C)(C)N3` (stereo not drawn) [Example 202, 2,5-Dihydro-10-methoxy-5-(2-(N-(2-methoxyethyl)aminocarbonyloxy)ethyl)-2,2,4-trimethyl-1H-[1]benzopyrano[3,4-f]quinoline]: the Ki in experiment [1] (setting [3]) is no less than 10000 nM; in experiment [2] (setting [4]), 134 nM.
Take `CNC(=O)OCCC1Oc2cccc(OC)c2-c2ccc3c(c21)C(C)=CC(C)(C)N3` (stereo not drawn) [Example 203, 2,5-Dihydro-10-methoxy-5-(2-(N-methyaminocarbonyloxyoxy)ethyl)-2,2,4-trimethyl-1H-[1]benzopyrano[3,4-f]quinoline]: the figures for the inhibition constant (Ki) in experiment [1] (setting [3]) and in experiment [2] (setting [4]) were no less than 10000 nM and 85 nM, respectively.
For `COc1cccc2c1-c1ccc3c(c1C(CCOC(=O)N(C)C)O2)C(C)=CC(C)(C)N3` (stereo not drawn) [Example 204, 2,5-Dihydro-10-methoxy-5-(2-(N,N-dimethylaminocarbonyloxy)ethyl)-2,2,4-trimethyl-1H-[1]benzopyrano[3,4-f]quinoline], the values for the Ki in experiment [1] (setting [3]) and in experiment [2] (setting [4]) were no less than 10000 nM and 74 nM, respectively.
Turning to `COCOCCC1Oc2cccc(OC)c2-c2ccc3c(c21)C(C)=CC(C)(C)N3` (stereo not drawn) [Example 205, 2,5-Dihydro-10-methoxy-5-(2-methoxymethoxyethyl)-2,2,4-trimethyl-1H-[1]benzopyrano[3,4-f]quinoline], the Ki was no less than 10000 nM in experiment [1] (setting [3]) and 11.4 nM in experiment [2] (setting [4]).
Consider `CCOC(=O)NCC1Oc2cccc(OC)c2-c2ccc3c(c21)C(C)=CC(C)(C)N3` (stereo not drawn) [Example 207], for which the Ki was no less than 10000 nM in experiment [1] (setting [3]) and 22 nM in experiment [2] (setting [4]).
As for `C=C=C(C)C1Oc2cccc(OC)c2-c2ccc3c(c21)C(C)=CC(C)(C)N3` (stereo not drawn) [Example 210, 2,5-Dihydro-10-methoxy-5-(-methylpropa-1,2-dienyl)-2,2,4-trimethyl-1H-[1]benzopyrano[3,4-f]quinoline], the Ki came to 710 nM in experiment [1] and 21 nM in experiment [2].
As for `COc1cccc2c1-c1ccc3c(c1C(c1cc(F)c(F)c(F)c1)O2)C(C)=CC(C)(C)N3` (stereo not drawn) [Example 211], the inhibitory constant (Ki) in experiment [1] (setting [3]) was no less than 10000 nM; in experiment [2] (setting [4]) it was 5.3 nM.
For the molecule `COc1cccc2c1-c1ccc3c(c1C(c1ccccn1)O2)C(C)=CC(C)(C)N3` (stereo not drawn) [Example 213, 2,5-Dihydro-10-methoxy-5-(2-pyridyl)-2,2,4-trimethyl-1H-[1]benzopyrano[3,4-f]quinoline], the results for the Ki in experiment [1] (setting [3]) and in experiment [2] (setting [4]) were no less than 10000 nM and 67 nM, respectively.
As for `COc1cccc2c1-c1ccc3c(c1C(c1cccnc1)O2)C(C)=CC(C)(C)N3` (stereo not drawn) [Example 214, 2,5-Dihydro-10-methoxy-5-(3-pyridyl)-2,2,4-trimethyl-1H-[1]benzopyrano[3,4-f]quinoline], the Ki in experiment [1] (setting [3]) is no less than 10000 nM; in experiment [2] (setting [4]), 5.7 nM.
On to `COc1cccc2c1-c1ccc3c(c1C(c1ccncc1)O2)C(C)=CC(C)(C)N3` (stereo not drawn) [Example 215, 2,5-Dihydro-10-methoxy-5-(4-pyridyl)-2,2,4-trimethyl-1H-[1]benzopyrano[3,4-f]quinoline], for which the Ki in experiment [1] (setting [3]) is no less than 10000 nM; in experiment [2] (setting [4]), 20 nM.
With `C=CCC1Oc2ccc(O)c(Cl)c2-c2ccc3c(c21)C(C)=CC(C)(C)N3` (stereo not drawn) [Example 216, 10-Chloro-9-hydroxy-5-(3-propenyl)-2,2,4-trimethyl-1H-2,5-dihydro-[1]benzopyrano[3,4-f]quinoline], the inhibition constant (Ki) in experiment [1] (setting [3]) was 7.6 nM; in experiment [2], 0.58 nM.
As for `CC1=CC(C)(C)Nc2ccc3c(c21)C(c1ccccc1)Oc1ccc(O)c(Cl)c1-3` (stereo not drawn) [Example 217, 10-Chloro-9-hydroxy-5-phenyl-2,2,4-trimethyl-1H-2,5-dihydro-[1]benzopyrano[3,4-f]quinoline], the figures for the Ki in experiment [1] (setting [3]) and in experiment [2] (setting [4]) were 65.1 nM and 1 nM, respectively.
With `CC1=CC(C)(C)Nc2ccc3c(c21)C(c1cccc(C(F)(F)F)c1)Oc1ccc(O)c(Cl)c1-3` (stereo not drawn) [Example 218, 10-Chloro-9-hydroxy-5-(3-trifluoromethylphenyl)-2,2,4-trimethyl-1H-2,5-dihydro-[1]benzopyrano[3,4-f]quinoline], the figures for the Ki in experiment [1] (setting [3]) and in experiment [2] (setting [4]) were 227 nM and 1.6 nM, respectively.
In the case of `CC1=CC(C)(C)Nc2ccc3c(c21)C(c1cc(C)cc(C)c1)Oc1ccc(O)c(Cl)c1-3` (stereo not drawn) [Example 219, 10-Chloro-9-hydroxy-5-(3,5-dimethylphenyl)-2,2,4-trimethyl-1H-2,5-dihydro-[1]benzopyrano[3,4-f]quinoline], the Ki came to 178 nM in experiment [1] (setting [3]) and 2.4 nM in experiment [2] (setting [4]).
In the case of `CC1=CC(C)(C)Nc2ccc3c(c21)[C@H]([C@H]1C=CCC1)Oc1ccc(O)c(Cl)c1-3` [Example 222, (−)2,5(S)-Dihydro-9-hydroxy-10-chloro-2,2,4-trimethyl-5-(3R-cyclopentenyl)-1H-[1]benzopyrano[3,4-f]quinoline], the Ki in experiment [1] (setting [3]) turned out to be 9.9 nM; in experiment [2] (setting [4]) it was 0.47 nM.
On the same counts, the results for `CC1=CC(C)(C)Nc2ccc3c(c21)C(c1cc(Cl)cc(Cl)c1)Oc1ccc(O)c(Cl)c1-3` (stereo not drawn) [Example 223, 10-Chloro-9-hydroxy-5-(3,5-dichlorophenyl)-2,2,4-trimethyl-1H-2,5-dihydro-[1]benzopyrano[3,4-f]quinoline] are 297 nM and 2.6 nM.
For `CC1=CC(C)(C)Nc2ccc3c(c21)[C@@H]([C@@H]1C=CCC1)Oc1ccc(O)c(Cl)c1-3` [Example 224], the Ki in experiment [1] (setting [3]) was determined as 786 nM; in experiment [2] (setting [4]), 57 nM.
Turning to `CC1=CC(C)(C)Nc2ccc3c(c21)[C@@H]([C@H]1C=CCC1)Oc1ccc(O)c(Cl)c1-3` [Example 225], the Ki turned out to be 5010 nM in experiment [1] (setting [3]) and 155 nM in experiment [2] (setting [4]).
Take `CC1=CC(C)(C)Nc2ccc3c(c21)C(c1ccc(F)c(F)c1)Oc1ccc(O)c(Cl)c1-3` (stereo not drawn) [Example 226, 10-Chloro-9-hydroxy-5-(3,4-difluorophenyl)-2,2,4-trimethyl-1H-2,5-dihydro-[1]benzopyrano[3,4-f]quinoline]: the inhibitory constant (Ki) worked out at 220 nM in experiment [1] (setting [3]) and 2.6 nM in experiment [2] (setting [4]).
On the same counts, the results for `C=CCC1Oc2ccc(Cl)c(C=C)c2-c2ccc3c(c21)C(C)=CC(C)(C)N3` (stereo not drawn) [Example 228, 5-(3-Propenyl)-9-chloro-10-ethenyl-2,2,4-trimethyl-2,5-dihydro-1H-[1]benzopyrano[3,4-f]quinoline] are 29.5 nM and 5.4 nM.
Consider `COc1c(Cl)ccc2c1-c1ccc3c(c1C(c1ccccc1)O2)C(C)=CC(C)(C)N3` (stereo not drawn) [Example 229, 9-Chloro-10-methoxy-5-phenyl-2,2,4-trimethyl-2,5-dihydro-1H[1]benzopyrano[3,4-f]quinoline], for which the inhibition constant (Ki) worked out at 1340 nM in experiment [1] (setting [3]) and 34.7 nM in experiment [2] (setting [4]).
